Values quoted from earlier work, collected in patent US7317012B2, “Bicyclic heterocycles as cannabinoind-1 receptor modulators” (Bristol-Myers Squibb Company, priority 2005, dated 2008).
Where two headings read alike, the source gives them in different places.

Experiments:
[1] = human subjects, 16 week trial period
[2] = chronic administration for two weeks

| SMILES | body weight [1] | body weight [2] |
| --- | --- | --- |
| Cc1c(C(=O)NN2CCCCC2)nn(-c2ccc(Cl)cc2Cl)c1-c1ccc(Cl)cc1 [SR-141716] | dose-dependently reduced body weight |  |
| Cc1c(C(=O)NN2CCCCC2)nn(-c2ccc(Cl)cc2Cl)c1-c1ccc(I)cc1 [AM-251] |  | substantial body weight reduction |
